How the values were obtained:
Hsp70i C306D mutant = target: T1, Hsp70i C306D mutant (Homo sapiens, UniProt P0DMV8, C306D); test: Thermofluor assay, Hsp70i C306D mutant; format: binding; conditions: ±ATP
T1 construct: His tag (cleaved yes); made in house
Procedure: Protein Purification: Plasmids were provided for human HSPA1A, HSPA8, and HSPA1A C306D. Plasmids were transformed in Rosetta competent cells and single colonies were picked from streaked LB/ampicillin/chloramphenicol plates. Cultures were grown at 37° C. for 4-6 hours, were cooled to 15° C. and expression was induced overnight with 200 uM isopropyl 1-thio-β-D-galactopyranoside. Cells were pelleted and resuspended in Ni-lysis buffer (50 mM Na2HPO4, 300 mM NaCl, 10 mM Imidazole, 0.05% Tween-20) supplemented with Complete Mini protease inhibitor tablets (Roche, Mannheim, Germany) and […], and then sonicated. The cells were again pelleted and the supernatant was incubated with complete His-Tag purification resin (Roche, Mannheim, Germany) for 5 hours at 4° C. The resin was washed with Ni-wash buffer (50 mM Na2HPO4, 300 mM NaCl, 20 mM Imidazole, 0.05% Tween-20) and eluted with Ni-elution buffer (50 mM Na2HPO4, 300 mM NaCl, 250 mM Imidazole, 0.05% Tween-20). […]
Thermofluor Assay: SYPRO orange (Molecular Probes, Eugene, Oreg.) was diluted 1:1000 in 25 mM HEPES, 5 mM MgCl2, 10 mM KCl (pH 7.5) and purified Hsp70i, Hsc70, Hsp70i C306, or Hsp90, was then added to a final dilution of 0.04 mg/ml. […] A melt curve protocol (25° C. to 90° C., increasing 0.5° C. and a plate reading every 30 seconds) was run on a CFX384 Touch™ Real-Time PCR Detection System (BioRad). […]

SkBr3 = test: Cell proliferation, SkBr3; format: cell-based; conditions: SkBr3
Procedure: Cell Proliferation: Cell proliferation was determined using a Hoechst stain (Sigma, St. Louis, Mo.) to quantify DNA. 5,000 cells of the designated cell line were plated in 96 well plates and treated the next day, designated as time point 0, with the indicated concentration of the specified compound maintained for the duration of the assay. At the indicated time points the media was removed and plated frozen at −80° C. Double distilled H2O was then added and the plates were incubated at 37° C. for 1 hour. After 1 hour the plates were frozen at −80° C. After freezing the plates were thawed and Hoechst stain was diluted 1:1000 in THE buffer (10 mM Tris, 2M NaCl, 1 mM Na2EDTA). The final fluorescence was measured on the Victor X2 plate reader at 355/460 nm, and cell proliferation was determined with the formula: % Cell Proliferation=100×(Sample fluorescence−background fluorescence)/(Control fluorescence−background fluorescence).

[1] = HS-72 PK in plasma, kidney and liver; format: in vivo, mice
Procedure: HS-72 PK: Wild-type mice were injected IP with HS-72 and sacrificed 5 minutes, 1 hour, 4 hours, 8 hours, and 24 hours post injection. Untreated animals were included as control and called 0 minutes. Each time point consisted of 3 animals. At the indicated time points liver, kidney, and blood was harvested from each animal. Whole blood was centrifuged and only the plasma was retained. Whole liver and kidneys were frozen and stored at −80° C. until processing. Before quantifying HS-72 in the plasma and tissue a standard curve was made using HS-72 and N-(1-methyl-1H-benzo[d]imidazol-2-yl)-1-(pyrazin-2-yl)piperidine-3-carboxamide (“HS-156”), as the internal standard. HS-72 and HS-156 were diluted in water and were further diluted 1:4 in acetonitrile. The resulting solution was then filtered through a 0.2 μm PTFE membrane (VWR, Radnor, Pa.). 15 uL of the solution was run through an Eclipse Plus C18 column (Agilent, Santa Clara, Calif.) and analyzed by an Agilent Ion Trap 6130 LC-MS (Agilent, Santa Clara, Calif.). The total ion chromatogram (TIC), extracted ion chromatogram (EIC), UV chromatogram, and mass spectra (MS) were obtained for each run. The area under the curve from the EIC for HS-72 at 364-366 and for HS-156 at 337 was determined. The EIC area ratio for HS-72 compared to HS-156 was calculated and this ratio was used to plot a standard curve based on the known concentrations of HS-72. The plasma samples were processed in the same manner as in the standard curve and analyzed by LC-MS. The resulting EIC ratios from HS-72 compared to HS-156 were then determined, which was used to calculate the concentration of HS-72 in the diluted sample. The concentration in solution of HS-72 was adjusted for the 1:4 dilution that occurs during sample preparation. The final concentration of HS-72 in plasma was calculated per mL of plasma. The liver and kidney samples were weighed and homogenized in tissue lysis buffer. The resulting homogenate was then processed in the same manner as the plasma samples. The resulting EIC ratios from HS-72 compared to HS-156 were then determined, which was used to calculate the concentration of HS-72 in the diluted sample. The concentration in solution of HS-72 was adjusted for the 1:4 dilution that occurs during sample preparation. Final concentration of HS-72 in the kidney and liver was calculated per gram of tissue using the weight of each tissue measured before sample processing.

[2] = 24 hours, IP 20 mg/Kg, n=3, SEM

T1 sequence (P0DMV8 whole entry C306D): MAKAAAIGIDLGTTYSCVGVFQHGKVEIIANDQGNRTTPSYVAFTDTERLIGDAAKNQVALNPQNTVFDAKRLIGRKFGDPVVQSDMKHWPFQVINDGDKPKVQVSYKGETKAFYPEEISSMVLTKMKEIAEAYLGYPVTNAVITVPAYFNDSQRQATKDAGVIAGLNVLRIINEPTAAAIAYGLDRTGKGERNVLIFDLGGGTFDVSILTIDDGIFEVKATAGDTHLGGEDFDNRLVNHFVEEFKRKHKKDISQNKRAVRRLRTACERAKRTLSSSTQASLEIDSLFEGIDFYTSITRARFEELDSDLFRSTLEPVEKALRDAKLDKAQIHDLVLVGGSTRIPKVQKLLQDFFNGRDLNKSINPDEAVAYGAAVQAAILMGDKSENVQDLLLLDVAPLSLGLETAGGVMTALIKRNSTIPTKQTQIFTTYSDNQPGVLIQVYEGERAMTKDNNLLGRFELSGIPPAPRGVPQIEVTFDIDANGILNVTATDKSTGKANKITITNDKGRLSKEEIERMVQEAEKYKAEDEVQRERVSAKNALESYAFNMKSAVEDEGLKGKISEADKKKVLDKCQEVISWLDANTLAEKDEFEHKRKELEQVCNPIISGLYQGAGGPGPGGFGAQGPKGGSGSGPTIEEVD

CCCn1c(NC(=O)[C@H]2CCCN(c3cnccn3)C2)nc2ccccc21 [HS-72, (S)—N-(1-propyl-1H-benzo[d]imidazol-2-yl)-1-(pyrazin-2-yl)piperidine-3-carboxamide]
effect on Tm of the Hsp70i C306D mutant (Hsp70i C306D mutant): does not change
cell proliferation (SkBr3): inhibits proliferation
cell proliferation, combination with HS-10 (SkBr3): additive effect
cell proliferation, combination with HS-10 (SkBr3; listed as HS72): synergism
plasma concentration ([1]; 5 minutes post IP injection, 20 mg/Kg, n=3, SEM): 70 ± 30 µM
kidney concentration ([1]; 5 minutes, IP 20 mg/Kg, n=3, SEM): 0.43 ± 0.08 µmol/g
plasma concentration ([1]; 8 hours post IP injection, 20 mg/Kg, n=3, SEM): 2 ± 0.2 µM
liver concentration (peak) ([1]; 8 hours, IP 20 mg/Kg, n=3, SEM): 2.26 ± 0.5 µmol/g
kidney concentration [1, 2]: 0.02 ± 0.004 µmol/g
liver concentration [1, 2]: 0.51 ± 0.11 µmol/g
plasma [HS-72] maintained ([1]; for at least 8 hours): > 20 µM
concentration at 24 hours ([1]; mouse, plasma, 24 hours post IP injection, 20 mg/Kg, read-out: plasma concentration, trace amounts): < 10 µM
half-life ([1]; mouse, plasma, IP 20 mg/Kg, n=3, SEM, read-out: T1/2 elimination from plasma (converted)): 24 ± 6 min
metabolism in plasma, kidney and liver ([1]; parent MS ion of 365.2 Da detected intact): no evidence of rapid metabolism
